Data taken from patent US10828262B2, “Biomembrane, closed structure with biomembrane characteristics or cellular compartment derived from natural sources and/or self-assembly techniques, preparation method and applications thereof” (priority 2017, dated 2020).

Assays:
[1] = In vivo half-life period of calcitonin after vein injection; set-up: species or system new zealand white rabbit; details: rabbit, injection through vein
[2] = test system: human hepatoma cell line BEL-7402; details: BALB/C nude mouse
Excerpt: (§1) • (1) Inoculate human hepatoma cell line BEL-7402 below back skin of BALB/C nude mouse.

[3] = Body weight of tumor model mice; type: in vivo, BALB/C nude mouse; details: BEL-7402 model nude mice
Excerpt: as §1

[4] = 0.2 ml intraperitoneal injection every day, after 10 d

Compound	in vivo half-life period [1] [h]	Tumor After treatment [2, 4] [mm^3]	Tumor Before treatment ([2]; liver-implanted tumor) [mm^3]	Weight Before treatment [3] [g]	Weight After treatment [3, 4] [g]
calcitonin [ordinary calcitonin]	2	–	–	–	–
COc1cccc2c1C(=O)c1c(O)c3c(c(O)c1C2=O)C[C@@](O)(C(=O)CO)C[C@@H]3O[C@H]1C[C@H](N)[C@H](O)[C@H](C)O1 [Adriamycin amycin, adriamycin]	–	50.17	42.93	20.03	20.1
